Results as given in ChEMBL document CHEMBL1201862, “PubChem BioAssay data set” (2004).
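Assay format: 96-well plates, 48-hour exposure. GI50 is the concentration that inhibits growth by half.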 Calls of active or inactive are those of the source. Cut-off read from the data, not from the text of the source: active = GI50 up to about 1.1 µM and inactive = higher.

Columns and labels:
Test in all cases: inhibition of tumour cell growth, NCI panel, 48 h
SK-OV-3 = tested on: SK-OV-3
BT-549 = tested on: BT-549
MDA-MB-435 = tested on: MDA-MB-435
HT-29 = tested on: HT-29
NCI/ADR-RES = tested on: NCI/ADR-RES
SF-539 = tested on: SF-539
786-0 = tested on: 786-0
EKVX = tested on: EKVX
ACHN = tested on: ACHN
HCT-116 = tested on: HCT-116
MDA-N = tested on: MDA-N
OVCAR-4 = tested on: OVCAR-4
HCT-15 = tested on: HCT-15
OVCAR-3 = tested on: OVCAR-3
RXF 393 = tested on: RXF 393
Malme-3M = tested on: Malme-3M
PC-3 = tested on: PC-3
COLO 205 = tested on: COLO 205
MCF7 = tested on: MCF7
SR = tested on: SR
HOP-62 = tested on: HOP-62
HL-60 = tested on: HL-60
A549 = tested on: A549
SF-295 = tested on: SF-295
CAKI-1 = tested on: CAKI-1
T47D = tested on: T47D
SNB-19 = tested on: SNB-19
SK-MEL-2 = tested on: SK-MEL-2
Hs-578T = tested on: Hs-578T
SW-620 = tested on: SW-620
OVCAR-8 = tested on: OVCAR-8
NCI-H522 = tested on: NCI-H522
SK-MEL-28 = tested on: SK-MEL-28
NCI-H226 = tested on: NCI-H226
NCI-H460 = tested on: NCI-H460
UO-31 = tested on: UO-31
DU-145 = tested on: DU-145
A498 = tested on: A498
UACC-257 = tested on: UACC-257
MOLT-4 = tested on: MOLT-4
SNB-75 = tested on: SNB-75
RPMI-8226 = tested on: RPMI-8226
SF-268 = tested on: SF-268
MDA-MB-231 = tested on: MDA-MB-231
TK-10 = tested on: TK-10
SK-MEL-5 = tested on: SK-MEL-5
K562 = tested on: K562
NCI-H23 = tested on: NCI-H23
U-251 = tested on: U-251
LOX IMVI = tested on: LOX IMVI
M14 = tested on: M14
KM12 = tested on: KM12
IGROV-1 = tested on: IGROV-1
SN12C = tested on: SN12C
UACC-62 = tested on: UACC-62
CCRF-CEM = tested on: CCRF-CEM
HOP-92 = tested on: HOP-92
HCC 2998 = tested on: HCC 2998
OVCAR-5 = tested on: OVCAR-5

O=C(Nc1ccc(Nc2ccc3c(c2)C(=O)c2ccccc2C3=O)c2c1C(=O)c1ccccc1C2=O)c1ccccc1
GI50 (SK-OV-3): 67.9 µM (inactive) | GI50 (BT-549): > 100 µM (inactive) | GI50 (MDA-MB-435): 3.53 µM (inactive) | GI50 (HT-29): 43.7 µM (inactive) | GI50 (NCI/ADR-RES): 22 µM (inactive) | GI50 (SF-539): > 23.7 µM (inactive) | GI50 (786-0): 38.8 µM (inactive) | GI50 (EKVX): > 100 µM (inactive) | GI50 (ACHN): > 100 µM (inactive) | GI50 (HCT-116): > 100 µM (inactive) | GI50 (MDA-N): 3.05 µM (inactive) | GI50 (OVCAR-4): > 100 µM (inactive) | GI50 (HCT-15): 7.62 µM | GI50 (OVCAR-3): 16 µM (inactive) | GI50 (RXF 393): 20.3 µM (inactive) | GI50 (Malme-3M): 14.1 µM (inactive) | GI50 (PC-3): 12.1 µM (inactive) | GI50 (COLO 205): 51.6 µM (inactive) | GI50 (MCF7): 31.3 µM (inactive) | GI50 (SR): 0.989 µM (active) | GI50 (HOP-62): 44.9 µM (inactive) | GI50 (HL-60): 17.7 µM (inactive) | GI50 (A549): > 72.6 µM (inactive) | GI50 (SF-295): 31.4 µM (inactive) | GI50 (CAKI-1): > 100 µM (inactive) | GI50 (T47D): 42.1 µM (inactive) | GI50 (SNB-19): > 80.5 µM (inactive) | GI50 (SK-MEL-2): 11.9 µM (inactive) | GI50 (Hs-578T): 32.4 µM (inactive) | GI50 (SW-620): 38.6 µM (inactive) | GI50 (OVCAR-8): > 86.5 µM (inactive) | GI50 (NCI-H522): 3.36 µM (inactive) | GI50 (SK-MEL-28): > 100 µM (inactive) | GI50 (NCI-H226): > 100 µM (inactive) | GI50 (NCI-H460): 6.47 µM (inactive) | GI50 (UO-31): > 100 µM (inactive) | GI50 (DU-145): 80.2 µM (inactive) | GI50 (A498): > 87.7 µM (inactive) | GI50 (UACC-257): > 100 µM (inactive) | GI50 (MOLT-4): 11.3 µM (inactive) | GI50 (SNB-75): 16.6 µM (inactive) | GI50 (RPMI-8226): 38.7 µM (inactive) | GI50 (SF-268): 44.9 µM (inactive) | GI50 (MDA-MB-231): 46.6 µM (inactive) | GI50 (TK-10): 95.3 µM (inactive) | GI50 (SK-MEL-5): > 42 µM (inactive) | GI50 (K562): 7 µM (inactive) | GI50 (NCI-H23): 79.4 µM (inactive) | GI50 (U-251): 19.5 µM (inactive) | GI50 (LOX IMVI): > 82.2 µM (inactive) | GI50 (M14): > 91.8 µM (inactive) | GI50 (KM12): 34.2 µM (inactive) | GI50 (IGROV-1): 32.3 µM (inactive) | GI50 (SN12C): > 100 µM (inactive) | GI50 (UACC-62): > 100 µM (inactive) | GI50 (CCRF-CEM): 14.6 µM (inactive) | GI50 (HOP-92): > 59.7 µM (inactive) | GI50 (HCC 2998): 6.84 µM (inactive) | GI50 (OVCAR-5): > 100 µM (inactive)

CN1CCc2cc(N)cc3c2C1Cc1ccc2c(c1-3)OCO2 (stereo unspecified)
GI50 (SK-OV-3): 44.9 µM (inactive) | GI50 (BT-549): 43 µM (inactive) | GI50 (MDA-MB-435): 9.59 µM (inactive) | GI50 (HT-29): 30.7 µM (inactive) | GI50 (NCI/ADR-RES): 24.3 µM (inactive) | GI50 (SF-539): 33.9 µM (inactive) | GI50 (786-0): 26.9 µM (inactive) | GI50 (EKVX): 50.9 µM (inactive) | GI50 (ACHN): 26.3 µM (inactive) | GI50 (HCT-116): 27.7 µM (inactive) | GI50 (MDA-N): 19.2 µM (inactive) | GI50 (OVCAR-4): 30 µM (inactive) | GI50 (HCT-15): 32.3 µM | GI50 (OVCAR-3): 27.1 µM (inactive) | GI50 (RXF 393): 27.4 µM (inactive) | GI50 (Malme-3M): 20.9 µM (inactive) | GI50 (PC-3): 42.7 µM (inactive) | GI50 (COLO 205): 30.1 µM (inactive) | GI50 (MCF7): 29.4 µM (inactive) | GI50 (SR): 11 µM (inactive) | GI50 (HOP-62): 34.8 µM (inactive) | GI50 (HL-60): 28.4 µM (inactive) | GI50 (A549): 37.2 µM (inactive) | GI50 (SF-295): 31.9 µM (inactive) | GI50 (CAKI-1): 41.5 µM (inactive) | GI50 (T47D): 36.1 µM (inactive) | GI50 (SNB-19): 61.8 µM (inactive) | GI50 (SK-MEL-2): 36.1 µM (inactive) | GI50 (Hs-578T): 28.2 µM (inactive) | GI50 (SW-620): 31 µM (inactive) | GI50 (OVCAR-8): 21.6 µM (inactive) | GI50 (NCI-H522): 18.1 µM (inactive) | GI50 (SK-MEL-28): 27.2 µM (inactive) | GI50 (NCI-H226): 34 µM (inactive) | GI50 (NCI-H460): 28.9 µM (inactive) | GI50 (UO-31): 35.2 µM (inactive) | GI50 (DU-145): 32.8 µM (inactive) | GI50 (A498): 49.9 µM (inactive) | GI50 (UACC-257): 22.5 µM (inactive) | GI50 (MOLT-4): 1.46 µM (inactive) | GI50 (SNB-75): 31.9 µM (inactive) | GI50 (RPMI-8226): 15.9 µM (inactive) | GI50 (SF-268): 33.5 µM (inactive) | GI50 (MDA-MB-231): 49.2 µM (inactive) | GI50 (TK-10): 45.8 µM (inactive) | GI50 (SK-MEL-5): 20.4 µM (inactive) | GI50 (K562): 27 µM (inactive) | GI50 (NCI-H23): 34 µM (inactive) | GI50 (U-251): 36.8 µM (inactive) | GI50 (LOX IMVI): 17.7 µM (inactive) | GI50 (M14): 30.8 µM (inactive) | GI50 (KM12): 13.5 µM (inactive) | GI50 (IGROV-1): 20.5 µM (inactive) | GI50 (SN12C): 26.9 µM (inactive) | GI50 (UACC-62): 22.8 µM (inactive) | GI50 (CCRF-CEM): 1.97 µM (inactive) | GI50 (HOP-92): 17.7 µM (inactive) | GI50 (HCC 2998): 19.6 µM (inactive) | GI50 (OVCAR-5): 42.4 µM (inactive)

CC(C)(C)OC(=O)N/N=C(/N)Cc1ccccc1
GI50 (SK-OV-3): > 100 µM (inactive) | GI50 (BT-549): > 100 µM (inactive) | GI50 (MDA-MB-435): > 100 µM (inactive) | GI50 (HT-29): > 100 µM (inactive) | GI50 (NCI/ADR-RES): > 100 µM (inactive) | GI50 (SF-539): > 100 µM (inactive) | GI50 (786-0): > 100 µM (inactive) | GI50 (EKVX): > 100 µM (inactive) | GI50 (ACHN): > 100 µM (inactive) | GI50 (HCT-116): > 100 µM (inactive) | GI50 (MDA-N): > 100 µM (inactive) | GI50 (OVCAR-4): > 100 µM (inactive) | GI50 (HCT-15): > 100 µM | GI50 (OVCAR-3): > 100 µM (inactive) | GI50 (RXF 393): > 100 µM (inactive) | GI50 (Malme-3M): > 100 µM (inactive) | GI50 (PC-3): > 100 µM (inactive) | GI50 (COLO 205): > 100 µM (inactive) | GI50 (MCF7): > 100 µM (inactive) | GI50 (SR): > 100 µM (inactive) | GI50 (HOP-62): > 100 µM (inactive) | GI50 (HL-60): > 100 µM (inactive) | GI50 (A549): > 100 µM (inactive) | GI50 (SF-295): > 100 µM (inactive) | GI50 (CAKI-1): > 100 µM (inactive) | GI50 (T47D): > 100 µM (inactive) | GI50 (SNB-19): > 100 µM (inactive) | GI50 (SK-MEL-2): > 100 µM (inactive) | GI50 (Hs-578T): > 100 µM (inactive) | GI50 (SW-620): > 100 µM (inactive) | GI50 (OVCAR-8): > 100 µM (inactive) | GI50 (NCI-H522): > 100 µM (inactive) | GI50 (SK-MEL-28): > 100 µM (inactive) | GI50 (NCI-H226): > 100 µM (inactive) | GI50 (UO-31): > 100 µM (inactive) | GI50 (DU-145): > 100 µM (inactive) | GI50 (A498): > 100 µM (inactive) | GI50 (UACC-257): > 100 µM (inactive) | GI50 (MOLT-4): > 100 µM (inactive) | GI50 (SNB-75): > 100 µM (inactive) | GI50 (RPMI-8226): > 100 µM (inactive) | GI50 (SF-268): > 100 µM (inactive) | GI50 (MDA-MB-231): > 100 µM (inactive) | GI50 (TK-10): > 100 µM (inactive) | GI50 (SK-MEL-5): > 100 µM (inactive) | GI50 (K562): > 100 µM (inactive) | GI50 (NCI-H23): > 100 µM (inactive) | GI50 (U-251): > 100 µM (inactive) | GI50 (LOX IMVI): > 100 µM (inactive) | GI50 (M14): > 100 µM (inactive) | GI50 (KM12): > 100 µM (inactive) | GI50 (IGROV-1): > 100 µM (inactive) | GI50 (SN12C): > 100 µM (inactive) | GI50 (UACC-62): > 100 µM (inactive) | GI50 (CCRF-CEM): > 100 µM (inactive) | GI50 (HOP-92): > 100 µM (inactive) | GI50 (HCC 2998): > 100 µM (inactive) | GI50 (OVCAR-5): > 100 µM (inactive)
